Measurements from US20260014175A1, “PHARMACEUTICAL COMPOSITION FOR ORAL ADMINISTRATION OF CANNABINOIDS” (EM[…]., priority 2022, published 2026).

Experiment: Compatibility of CBD / CBD-containing SNEDDS with excipients (CBD release in SGF, SIF, FaSSIF)
Type: physicochemical
Experimental: A number of different compositions were prepared and tested in order to determine the compatibility of CBD and/or CBD-containing self-nanoemulsifying drug delivery systems (SNEDDS) with various excipients.

SMILES | compatibility with CBD/CBD-containing SNEDDS
NCC(=O)O [Glycine] | no signs of incompatibility
O=C([O-])CN(CCN(CC(=O)[O-])CC(=O)O)CC(=O)O.[Na+].[Na+] [EDTA sodium] | no signs of incompatibility
CCCCCCCCCCCCOS(=O)(=O)[O-].[Na+] [Sodium lauryl sulfate (SLS), Sodium lauryl sulfate] | no signs of incompatibility
